Inhibition data for 17 compounds are collected here from patent publication US6858638B2, “Substituted indazoles, compositions containing them, method of production and use” (Aventis Pharma S.A., priority 2002, dated 2005).

What all share (type): biochemical
One assay has as its target T1, Aurora2 kinase (Homo sapiens, UniProt O14965).
T1 construct: A complete recombinant Aurora2 enzyme; His tag (N); made in house; host or cells: E. coli
T1 sequence (O14965 1-403): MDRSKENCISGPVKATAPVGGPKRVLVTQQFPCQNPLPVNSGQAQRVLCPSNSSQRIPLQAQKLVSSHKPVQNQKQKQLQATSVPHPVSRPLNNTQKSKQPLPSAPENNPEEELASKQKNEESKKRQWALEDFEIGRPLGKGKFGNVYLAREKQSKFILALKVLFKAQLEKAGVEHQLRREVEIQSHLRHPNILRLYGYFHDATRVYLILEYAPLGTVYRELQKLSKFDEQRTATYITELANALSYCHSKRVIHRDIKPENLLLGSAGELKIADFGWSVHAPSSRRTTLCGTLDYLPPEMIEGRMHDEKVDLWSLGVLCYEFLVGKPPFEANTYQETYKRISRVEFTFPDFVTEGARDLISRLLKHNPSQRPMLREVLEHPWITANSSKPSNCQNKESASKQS
Briefly: Aurora2 kinase radioactivity scintillation assay using nickel chelate (NuMA substrate). To be noted: read-out: Aurora2 % inhib at 10 μM. A digest of the protocol: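 His-tagged full-length Aurora2 (0.02 μM, E. coli) phosphorylating His-tagged NuMA C-terminal fragment (0.5 μM) with 1 μM ATP plus [33P]-ATP, 30 min at 37 °C, pH 7.5 Tris buffer with MgCl2. Nickel-chelate scintillation read; percent inhibition versus no-compound control.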

A further assay deals with T2, human FAK (Homo sapiens, UniProt Q05397).
T2 construct: The complete cDNA of human FAK; made in house; host or cells: baculovirus expression system (vector pFastBac HTc)
As to the kind of experiment: FAK autophosphorylation inhibition, time resolved fluorescence (HTRF) assay. The conditions noted are these: 10 μM (values without asterisk); read-out: FAK % inhib at 10 μM. A digest of the protocol: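 His-tagged full-length human FAK from baculovirus (6.6 µg/ml) self-phosphorylates with 15 µM ATP in HEPES pH 7.2, MgCl2, vanadate, 1 h at 37 °C. HTRF detection (Eu-anti-phosphotyrosine / XL665-anti-His), 665/620 nm ratio; % inhibition vs untreated control, duplicate mean.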

In assay [1] the target is T3, human IGF1R cytoplasmic domain (Homo sapiens, UniProt P08069).
T3 construct: The human IGF1R cytoplasmic domain was cloned; made in house; host or cells: SF21 insect cells (baculovirus)
Briefly: IGF1R autophosphorylation inhibition, time resolved fluorescence (HTRF) assay. To be noted: read-out: IGF1R % inhib at 10 μM. As to the method: The inhibitory activity of the compounds on IGF1R is determined by measuring the inhibition of the autophosphorylation of the enzyme using a time resolved fluorescence (HTRF) assay.
The human IGF1R cytoplasmic domain was cloned, as a fusion with glutathione S-transferase (GST), into the baculovirus expression vector pFastBac-GST. The protein was expressed in SF21 cells and purified to approximately 80% homogeneity.
The kinase activity was determined by incubating the enzyme with various concentrations of test compound in a 50 mM Hepes buffer, pH 7.5, containing 5 mM MnCl2, 50 mM NaCl, 3% glycerol, 0.025% Tween […] of ATP. The enzyme reaction is stopped by adding 100 mM Hepes buffer, pH 7.0, containing 0.4 M KF, 133 mM EDTA and 0.1% BSA containing an anti-GST antibody labeled with XL665 and an antiphosphotyrosine antibody conjugated to europium cryptate (Eu-K). The characteristics of the two fluorophores, XL-665 and Eu-K, are available in G. Mathis et al., Anticancer Research, 1997, 17, pages 3011-3014. The transfer of energy from the excited europium cryptate to the acceptor XL665 is proportional to the degree of autophosphorylation of IGF1R. The long-lived signal specific for XL-665 is measured in a Victor analyzer plate counter (Perkin-elmer). The inhibition of the IGF1R autophosphorylation activity with compounds of the invention is expressed as percentage inhibition compared to a control whose activity is measured in the absence of test compound.

The target in another assay is T4, human KDR enzyme (Homo sapiens, UniProt P35968).
T4 construct: The cytoplasmic domain of the human KDR enzyme; GST; made in house; host or cells: SF21 insect cells (baculovirus)
As to the kind of experiment: KDR substrate (PLCγ) phosphorylation, scintillation assay. To be noted: read-out: KDR % inhib at 10 μM. In short, it runs like this:
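GST-fused human KDR cytoplasmic domain from SF21 cells (about 60% pure, 100 ng) phosphorylated 2 μg of GST-PLCγ SH2-SH3 fragment. The trigger solution held γ33P-ATP with 2 μM cold ATP, in MOPS buffer pH 7.2 with Mg2+, Mn2+, vanadate and NaF. Reactions ran 1 h at 37 °C, were stopped with EDTA and counted by scintillation; results are % inhibition versus the no-compound control.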

Structures are written as SMILES. Where two headings read alike, the source gives them in different places.

T2 sequence (Q05397 whole entry): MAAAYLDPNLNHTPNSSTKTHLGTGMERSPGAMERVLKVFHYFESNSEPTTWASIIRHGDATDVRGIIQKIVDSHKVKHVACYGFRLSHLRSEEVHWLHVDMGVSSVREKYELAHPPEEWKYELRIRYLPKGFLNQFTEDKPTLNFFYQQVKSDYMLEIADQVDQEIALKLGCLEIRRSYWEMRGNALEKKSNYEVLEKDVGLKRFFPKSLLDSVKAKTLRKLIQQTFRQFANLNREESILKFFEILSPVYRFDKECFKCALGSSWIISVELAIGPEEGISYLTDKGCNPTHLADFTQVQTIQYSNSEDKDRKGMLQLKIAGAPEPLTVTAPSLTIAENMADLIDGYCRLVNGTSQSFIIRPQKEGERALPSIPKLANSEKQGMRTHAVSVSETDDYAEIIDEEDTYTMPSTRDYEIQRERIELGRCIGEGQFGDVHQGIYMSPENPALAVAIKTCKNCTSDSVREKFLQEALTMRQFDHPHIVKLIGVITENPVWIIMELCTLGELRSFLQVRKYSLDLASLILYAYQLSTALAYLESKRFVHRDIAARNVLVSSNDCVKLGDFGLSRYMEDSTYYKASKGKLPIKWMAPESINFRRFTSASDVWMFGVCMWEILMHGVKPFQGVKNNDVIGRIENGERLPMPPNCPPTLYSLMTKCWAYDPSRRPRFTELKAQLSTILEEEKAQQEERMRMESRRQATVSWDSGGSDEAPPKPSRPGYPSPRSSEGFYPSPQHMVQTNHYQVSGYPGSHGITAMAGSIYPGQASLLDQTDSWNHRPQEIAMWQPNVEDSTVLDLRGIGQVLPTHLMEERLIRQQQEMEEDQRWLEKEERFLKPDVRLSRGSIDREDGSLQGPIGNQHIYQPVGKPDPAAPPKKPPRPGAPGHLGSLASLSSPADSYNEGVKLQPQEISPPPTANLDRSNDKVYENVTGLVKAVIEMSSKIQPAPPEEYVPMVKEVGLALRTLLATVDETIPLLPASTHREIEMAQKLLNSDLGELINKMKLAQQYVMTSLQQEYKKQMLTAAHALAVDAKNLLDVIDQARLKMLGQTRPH
T3 sequence (P08069 960-1367 limits assumed): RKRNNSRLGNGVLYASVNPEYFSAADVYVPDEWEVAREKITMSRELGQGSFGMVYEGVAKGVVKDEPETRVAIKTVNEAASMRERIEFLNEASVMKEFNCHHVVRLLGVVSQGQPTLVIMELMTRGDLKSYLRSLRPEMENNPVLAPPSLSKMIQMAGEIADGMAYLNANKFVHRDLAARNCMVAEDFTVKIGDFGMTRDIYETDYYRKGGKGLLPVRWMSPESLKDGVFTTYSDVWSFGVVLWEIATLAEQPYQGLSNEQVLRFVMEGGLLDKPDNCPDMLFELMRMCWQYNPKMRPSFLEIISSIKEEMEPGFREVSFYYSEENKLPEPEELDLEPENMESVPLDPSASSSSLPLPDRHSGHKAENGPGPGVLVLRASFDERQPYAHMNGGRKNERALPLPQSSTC
T4 sequence (P35968 786-1356 limits assumed): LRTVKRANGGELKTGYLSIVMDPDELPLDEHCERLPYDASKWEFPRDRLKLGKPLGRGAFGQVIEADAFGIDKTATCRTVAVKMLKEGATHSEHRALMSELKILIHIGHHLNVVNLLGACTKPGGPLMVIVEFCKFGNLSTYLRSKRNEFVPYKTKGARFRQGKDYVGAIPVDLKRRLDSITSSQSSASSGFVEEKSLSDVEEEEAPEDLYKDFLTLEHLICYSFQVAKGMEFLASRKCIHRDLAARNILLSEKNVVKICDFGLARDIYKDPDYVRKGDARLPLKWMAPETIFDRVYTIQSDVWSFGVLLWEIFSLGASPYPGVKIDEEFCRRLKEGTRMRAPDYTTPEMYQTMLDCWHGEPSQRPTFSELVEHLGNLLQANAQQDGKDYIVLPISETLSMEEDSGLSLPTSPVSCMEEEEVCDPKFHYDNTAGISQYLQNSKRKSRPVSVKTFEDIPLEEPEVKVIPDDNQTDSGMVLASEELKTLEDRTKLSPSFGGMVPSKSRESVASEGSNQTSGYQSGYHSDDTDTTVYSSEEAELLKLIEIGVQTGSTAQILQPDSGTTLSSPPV

In the case of `CCOc1ccccc1-c1n[nH]c2ccc(NS(=O)(=O)c3ccccc3S(C)(=O)=O)cc12` [Example 189, N-[3-(2-Ethoxyphenyl)-1H-indazol-5-yl]-2-methanesulfonyl-benzenesulfonamide], the inhibition at 10 µM at Aurora2 kinase (10 μM) worked out at 62%; at human FAK, 70%; in assay [1] (10 μM) it was 31%; at human KDR enzyme (10 μM) it was 20%.
In the same order, the values of `C=Cc1ccc(-c2n[nH]c3ccc(NS(=O)(=O)c4ccccc4S(C)(=O)=O)cc23)cc1` [Example 185, 2-Methanesulfonyl-N-[3-(4-vinylphenyl)-1H-indazol-5-yl]-benzenesulfonamide] are 94%, 92%, 77% and 58%.
`O=S(=O)(Nc1ccc2[nH]nc(-c3cc4ccccc4[nH]3)c2c1)c1cccc(F)c1` [Example 85, 3-Fluoro-N-[3-(1H-indol-2-yl)-1H-indazol-5-yl]benzenesulfonamide]: the inhibition at 10 µM at Aurora2 kinase (10 μM) is 100%; at human FAK, 95%; in assay [1] (10 μM) it was 99%; at human KDR enzyme (10 μM), 99%.
On to `CS(=O)(=O)c1ccccc1S(=O)(=O)Nc1ccc2[nH]nc(-c3cccc(C(F)(F)F)c3)c2c1` [Example 175, N-[3-(3-Trifluoromethylphenyl)-1H-indazol-5-yl]-2-methanesulfonyl-benzenesulfonamide], for which the inhibition at 10 µM on Aurora2 kinase (10 μM) is 88%; on human FAK, 90%; in assay [1] (10 μM), 81%; at human KDR enzyme (10 μM) it was 68%.
In the same order, the values of `Cc1cccc(-c2n[nH]c3ccc(NS(=O)(=O)c4ccccc4S(C)(=O)=O)cc23)c1` [Example 165, 2-Methanesulfonyl-N-(3-m-tolyl-1H-indazol-5-yl)-benzenesulfonamide] are 92%, 96%, 71% and 58%.
In the same order, the values of `CCOc1ccc(-c2n[nH]c3ccc(NS(=O)(=O)c4ccccc4S(C)(=O)=O)cc23)cc1` [Example 190, N-[3-(4-Ethoxyphenyl)-1H-indazol-5-yl]-2-methanesulfonyl-benzenesulfonamide] are 95%, 96%, 74% and 50%.
The like results for `CCSc1ccc(-c2n[nH]c3ccc(NS(=O)(=O)c4ccccc4S(C)(=O)=O)cc23)cc1` [Example 213, N-[3-(4-Ethylsulfanylphenyl)-1H-indazol-5-yl]-2-methanesulfonyl-benzenesulfonamide] were, in that order, 89%, 80%, 77% and 68%.
`COc1ccc(-c2n[nH]c3ccc(NS(=O)(=O)c4ccccc4S(C)(=O)=O)cc23)c(OC)c1` [Example 199, 2-Methanesulfonyl-N-[3-(2,4-dimethoxyphenyl)-1H-indazol-5-yl]benzenesulfonamide]: the inhibition at 10 µM at Aurora2 kinase (10 μM) was determined as 87%; at human FAK, 87%; in assay [1] (10 μM) it was 27%; at human KDR enzyme (10 μM), 45%.
For the compound `CS(=O)(=O)c1ccccc1S(=O)(=O)Nc1ccc2[nH]nc(-c3ccc(Br)cc3F)c2c1` [Example 212, N-[3-(4-Bromo-2-fluoro-phenyl)-1H-indazol-5-yl]-2-methanesulfonyl-benzenesulfonamide], the inhibition at 10 µM at Aurora2 kinase (10 μM) stood at 86%; on human FAK, 72%; in assay [1] (10 μM) it was 65%; on human KDR enzyme (10 μM) it was 47%.
`CS(=O)(=O)c1ccc(S(=O)(=O)Nc2ccc3[nH]nc(-c4ccccc4)c3c2)cc1` [Example 155, 4-Methanesulfonyl-N-(3-phenyl-1H-indazol-5-yl)-benzenesulfonamide]: the inhibition at 10 µM amounted to 61% on Aurora2 kinase (10 μM), 5% on human FAK, 50% in assay [1] (10 μM) and 61% at human KDR enzyme (10 μM).
For the compound `CS(=O)(=O)c1ccccc1S(=O)(=O)Nc1ccc2[nH]nc(-c3ccc(OCc4ccccc4)c(F)c3)c2c1` [Example 194, N-[3-(4-Benzyloxy-3-fluoro-phenyl)-1H-indazol-5-yl]-2-methanesulfonyl-benzenesulfonamide], the inhibition at 10 µM on Aurora2 kinase (10 μM) came out at 58%; on human FAK, 44%; in assay [1] (10 μM), 41%; on human KDR enzyme (10 μM) it was 39%.
Consider `CC(=O)c1ccc(-c2n[nH]c3ccc(NS(=O)(=O)c4ccccc4S(C)(=O)=O)cc23)cc1` [Example 207, N-[3-(4-Acetylphenyl)-1H-indazol-5-yl]-2-methanesulfonyl-benzenesulfonamide], for which the inhibition at 10 µM amounted to 94% on Aurora2 kinase (10 μM), 91% on human FAK, 56% in assay [1] (10 μM) and 45% at human KDR enzyme (10 μM).
With `CS(=O)(=O)c1ccccc1S(=O)(=O)Nc1ccc2[nH]nc(-c3cccc(O)c3)c2c1` [Example 200, N-[3-(3-Hydroxyphenyl)-1H-indazol-5-yl]-2-methanesulfonyl-benzenesulfonamide], the inhibition at 10 µM was 94% at Aurora2 kinase (10 μM), 93% at human FAK, 73% in assay [1] (10 μM) and 64% at human KDR enzyme (10 μM).
On to `CS(=O)(=O)c1ccccc1S(=O)(=O)Nc1ccc2[nH]nc(-c3cc4ccccc4o3)c2c1` [Example 180, N-(3-Benzofuran-2-yl-1H-indazol-5-yl)-2-methanesulfonyl-benzenesulfonamide], for which the inhibition at 10 µM on Aurora2 kinase (10 μM) was 99%; on human FAK, 95%; in assay [1] (10 μM) it was 93%; on human KDR enzyme (10 μM), 29%.
The like results for `CS(=O)(=O)c1ccccc1S(=O)(=O)Nc1ccc2[nH]nc(-c3ccc(F)cc3F)c2c1` [Example 217, N-[3-(2,4-Difluorophenyl)-1H-indazol-5-yl]-2-methanesulfonyl-benzenesulfonamide] were, in that order, 92%, 95%, 83% and 70%.
In the same order, the values of `COc1ccc2[nH]c(-c3n[nH]c4ccc(NS(=O)(=O)c5ccccc5S(C)(=O)=O)cc34)cc2c1` [Example 58, 2-Methylsulfonyl-N-[3-(5-methoxy-1H-indol-2-yl)-1H-indazol-5-yl]benzenesulfonamide] are 100%, 97%, 100% and 97%.
As to `C[Si](C)(C)C#Cc1cccc(-c2n[nH]c3ccc(NS(=O)(=O)c4ccccc4S(C)(=O)=O)cc23)c1` [Example 91, 2-Methylsulfonyl-N-[3-(3-trimethylsilanylethynylphenyl)-1H-indazol-5-yl]benzenesulfonamide], the inhibition at 10 µM at Aurora2 kinase was 11%; on human FAK, 95%; in assay [1], 7%; on human KDR enzyme, 35%.
